Data from PubChem BioAssay AID248 (DTP/NCI, 2004).
“And” between values parts separate entries of the source, which are not always exact repeats. Identical values can stand only once. Inconclusive results and toxic doses are left out. Cut-off read from the data, not from the text of the source: active = T/C of 150% or more; inactive = T/C below 125%.

Tested on: L1210 leukemia ip in BDF1 mice, survival T/C
Experiment: NCI In Vivo Anticancer Drug Screen. Data for tumor model L1210 Leukemia (intraperitoneal) in B6D2F1 (BDF1) mice
Conditions: endpoint: mean survival time, higher = longer survival
Summary of the method: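 Mice bearing the transplanted tumor received compound or vehicle. Survival of the treated group was divided by that of the vehicle-treated control group to give the ratio.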

[1] = dose: 25.0 mg/kg/injection, schedule: Q04DX003 (ip), vehicle: saline
[2] = dose: 50.0 mg/kg/injection, schedule: Q01DX009 (ip), vehicle: saline
[3] = dose: 50.0 mg/kg/injection, schedule: Q04DX003 (ip), vehicle: saline
[4] = dose: 100.0 mg/kg/injection, schedule: Q01DX001 (ip), vehicle: saline
[5] = dose: 100.0 mg/kg/injection, schedule: Q01DX009 (ip), vehicle: saline
[6] = dose: 100.0 mg/kg/injection, schedule: Q04DX003 (ip), vehicle: saline
[7] = dose: 100.0 mg/kg/injection, schedule: Q04DX003 (ip), vehicle: Klucel (hydroxypropylcellulose) (HPC)
[8] = dose: 200.0 mg/kg/injection, schedule: Q04DX003 (ip), vehicle: Klucel (hydroxypropylcellulose) (HPC)
[9] = dose: 400.0 mg/kg/injection, schedule: Q04DX003 (ip), vehicle: Klucel (hydroxypropylcellulose) (HPC)
[10] = dose: 200.0 mg/kg/injection, schedule: Q01DX009 (ip), vehicle: saline
[11] = dose: 200.0 mg/kg/injection, schedule: Q04DX003 (ip), vehicle: saline
[12] = dose: 50.0 mg/kg/injection, schedule: Q01DX001 (ip), vehicle: saline
[13] = dose: 200.0 mg/kg/injection, schedule: Q01DX001 (ip), vehicle: saline
[14] = dose: 400.0 mg/kg/injection, schedule: Q01DX001 (ip), vehicle: saline
[15] = dose: 100.0 mg/kg/injection, schedule: Q01DX001 (ip), vehicle: Klucel (hydroxypropylcellulose) (HPC)
[16] = dose: 200.0 mg/kg/injection, schedule: Q01DX001 (ip), vehicle: Klucel (hydroxypropylcellulose) (HPC)
[17] = dose: 25.0 mg/kg/injection, schedule: Q01DX009 (ip), vehicle: Klucel (hydroxypropylcellulose) (HPC)
[18] = dose: 50.0 mg/kg/injection, schedule: Q01DX009 (ip), vehicle: Klucel (hydroxypropylcellulose) (HPC)
[19] = dose: 100.0 mg/kg/injection, schedule: Q01DX009 (ip), vehicle: Klucel (hydroxypropylcellulose) (HPC)
[20] = dose: 100.0 mg/kg/injection, schedule: Q04DX002 (ip), vehicle: Klucel (hydroxypropylcellulose) (HPC)
[21] = dose: 200.0 mg/kg/injection, schedule: Q04DX002 (ip), vehicle: Klucel (hydroxypropylcellulose) (HPC)
[22] = dose: 400.0 mg/kg/injection, schedule: Q04DX002 (ip), vehicle: Klucel (hydroxypropylcellulose) (HPC)
[23] = dose: 200.0 mg/kg/injection, schedule: Q01DX009 (ip), vehicle: Klucel (hydroxypropylcellulose) (HPC)
[24] = dose: 400.0 mg/kg/injection, schedule: Q01DX009 (ip), vehicle: Klucel (hydroxypropylcellulose) (HPC)
[25] = dose: 12.5 mg/kg/injection, schedule: Q01DX009 (ip), vehicle: Klucel (hydroxypropylcellulose) (HPC)

Measured: T/C

CN=C(Nc1ccccc1)SC
inactive: dose: 25.0 mg/kg/injection, schedule: Q01DX009 (ip), vehicle: saline 92 % of control | [1] 94 % of control | [2] 105 % of control | [3] 97 % of control | [4] 104 % of control | [5] 105 % of control | [6] 97 % of control

CNC(=O)O[C@H]1CC[C@@]2(C)C(=CC[C@H]3[C@@H]4CC[C@H]([C@H](C)CCCC(C)C)[C@@]4(C)CC[C@@H]32)C1
inactive: dose: 100.0 mg/kg/injection, schedule: Q01DX001 (sc), vehicle: steriod suspending solution 87 % of control | dose: 200.0 mg/kg/injection, schedule: Q01DX001 (sc), vehicle: steriod suspending solution 97 % of control | dose: 400.0 mg/kg/injection, schedule: Q01DX001 (sc), vehicle: steriod suspending solution 92 % of control

COc1ccc(/C=N/NC(=O)c2ccc(OC)cc2)cc1
inactive: [7] 101 % of control | [8] 90 % of control | [9] 92 % of control

CC(=O)Nc1cccnc1
inactive: [2] 101 % of control | [3] 100 % of control | [5] 101 % of control | [6] 94 % of control | [10] 98 % of control | [11] 97 % of control

[O]=[Sn]([OH])[c]1ccccc1
inactive: dose: 100.0 mg/kg/injection, schedule: Q04DX002 (ip), vehicle: saline with Tween-80 102 % of control | dose: 200.0 mg/kg/injection, schedule: Q04DX002 (ip), vehicle: saline with Tween-80 105 % of control | dose: 400.0 mg/kg/injection, schedule: Q04DX002 (ip), vehicle: saline with Tween-80 94 % of control

O=C(O)Cc1cc2c(cc1[N+](=O)[O-])OCO2
inactive: [12] 103 % of control | [4] 97 % of control | [13] 97 % of control | [14] 103 % of control

O=C1C=C(N2C3C4CCC(C4)C32)C(=O)C=C1c1ccccc1 (configuration not stated)
inactive: dose: 50.0 mg/kg/injection, schedule: Q01DX001 (ip), vehicle: Klucel (hydroxypropylcellulose) (HPC) 96 % of control | [15] 97 % of control | [16] 94 % of control

C(=N\Nc1nnc(N/N=C/c2cccc(OCc3ccccc3)c2)c2ccccc12)/c1cccc(OCc2ccccc2)c1
inactive: [12] 101 % of control | [4] 95 % of control | [13] 92 % of control | [14] 97 % of control

O=c1nccc(Nc2ccccc2)[nH]1
inactive: [17] 98 % of control | [18] 93 % of control | [19] 98 % of control

N=c1c2ncn(C3OC(CO)C(O)C3O)c2ncn1O (configuration not stated)
inactive: [12] 101 % of control | dose: 75.0 mg/kg/injection, schedule: Q01DX001 (ip), vehicle: saline 111 % of control | [4] 103 % of control | dose: 150.0 mg/kg/injection, schedule: Q01DX001 (ip), vehicle: saline 105 % of control

CCN(CC)CCn1c2ccncc2c2cnccc21
inactive: [1] 96 % of control | [3] 101 % of control | [6] 103 % of control

C=C1c2ccccc2N(C)C1(COc1ccc(Cl)c(C)c1)OC(=O)c1cccc(Cl)c1 (configuration not stated)
inactive: [20] 95 % of control | [21] 95 % of control | [22] 88 % of control

COc1ccccc1NC(=O)Nc1ccccc1F
inactive: [19] 100 % of control | [7] 89 % of control | [23] 105 % of control | [8] 89 % of control | [24] 97 % of control | [9] 97 % of control

CCNP(=O)(OCC)OCC
inactive: dose: 50.0 mg/kg/injection, schedule: Q01DX001 (ip), vehicle: carboxymethylcellulose (CMC) 94 % of control | dose: 100.0 mg/kg/injection, schedule: Q01DX001 (ip), vehicle: carboxymethylcellulose (CMC) 92 % of control | dose: 200.0 mg/kg/injection, schedule: Q01DX001 (ip), vehicle: carboxymethylcellulose (CMC) 94 % of control | dose: 400.0 mg/kg/injection, schedule: Q01DX001 (ip), vehicle: carboxymethylcellulose (CMC) 118 % of control

NC1CCC(CC2CCCCCC2)CC1 (configuration not stated)
inactive: dose: 6.25 mg/kg/injection, schedule: Q01DX009 (ip), vehicle: Klucel (hydroxypropylcellulose) (HPC) 107 % of control | [25] 100 % of control | [17] 97 % of control and 98 % of control

CCOC(=O)CN(C)C#N
inactive: [5] 101 % of control | [6] 92 % of control | [10] 101 % of control | [11] 92 % of control | dose: 400.0 mg/kg/injection, schedule: Q01DX009 (ip), vehicle: saline 92 % of control | dose: 400.0 mg/kg/injection, schedule: Q04DX003 (ip), vehicle: saline 91 % of control

CC1(C(=O)O)NC(C(=O)O)CS1 (configuration not stated)
inactive: dose: 5.0 mg/kg/injection, schedule: Q01DX001 (ip), vehicle: saline 96 % of control | dose: 10.0 mg/kg/injection, schedule: Q01DX001 (ip), vehicle: saline 108 % of control | dose: 20.0 mg/kg/injection, schedule: Q01DX001 (ip), vehicle: saline 104 % of control | dose: 40.0 mg/kg/injection, schedule: Q01DX001 (ip), vehicle: saline 102 % of control | dose: 80.0 mg/kg/injection, schedule: Q01DX001 (ip), vehicle: saline 98 % of control

C/C(=N\Nc1cccc(N)c1)c1ccccc1
inactive: dose: 25.6 mg/kg/injection, schedule: Q04DX002 (ip), vehicle: saline with Tween-80 89 % of control | dose: 64.0 mg/kg/injection, schedule: Q04DX002 (ip), vehicle: saline with Tween-80 89 % of control

CN1c2ccc(Br)c[c]2[Sn]2([c]3cc(Br)ccc31)[c]1cc(Br)ccc1N(C)c1ccc(Br)c[c]12
inactive: dose: 100.0 mg/kg/injection, schedule: Q01DX001 (ip), vehicle: steriod suspending solution 104 % of control | dose: 200.0 mg/kg/injection, schedule: Q01DX001 (ip), vehicle: steriod suspending solution 107 % of control | dose: 400.0 mg/kg/injection, schedule: Q01DX001 (ip), vehicle: steriod suspending solution 109 % of control

O=C(O)c1ccccc1CBr
inactive: dose: 100.0 mg/kg/injection, schedule: Q01DX005 (ip), vehicle: Klucel (hydroxypropylcellulose) (HPC) 97 % of control | [19] 97 % of control | [20] 96 % of control | [7] 93 % of control | dose: 200.0 mg/kg/injection, schedule: Q01DX005 (ip), vehicle: Klucel (hydroxypropylcellulose) (HPC) 105 % of control | [23] 97 % of control | [21] 100 % of control | [8] 93 % of control | dose: 400.0 mg/kg/injection, schedule: Q01DX005 (ip), vehicle: Klucel (hydroxypropylcellulose) (HPC) 101 % of control | [24] 97 % of control | [22] 93 % of control | [9] 105 % of control

C=C(Br)CNC(=O)c1ccccc1
inactive: [25] 97 % of control | [17] 108 % of control | [18] 90 % of control | [15] 101 % of control | [16] 106 % of control
